Assay results published in ChEMBL document CHEMBL4043168, “The design and SAR of a novel series of 2-aminopyridine based LRRK2 inhibitors” (Bioorg Med Chem Lett, 2017).

Assays:
[1] = biological target: Cyclin-dependent kinase 5 (Homo sapiens) (UniProt Q00535); experiment: Inhibition of CDK5 labeling at conserved Lys1 (NRETHEIVALKR) in human PBMC at 0.1 uM
[2] = biological target: T1, Phosphatidylinositol 4,5-bisphosphate 3-kinase catalytic subunit delta isoform (Homo sapiens) (UniProt O00329); experiment: Inhibition of PIK3CD ATP binding site (VNWLAHNVSKDNRQ) in human PBMC at 1 uM
T1 sequence (whole entry): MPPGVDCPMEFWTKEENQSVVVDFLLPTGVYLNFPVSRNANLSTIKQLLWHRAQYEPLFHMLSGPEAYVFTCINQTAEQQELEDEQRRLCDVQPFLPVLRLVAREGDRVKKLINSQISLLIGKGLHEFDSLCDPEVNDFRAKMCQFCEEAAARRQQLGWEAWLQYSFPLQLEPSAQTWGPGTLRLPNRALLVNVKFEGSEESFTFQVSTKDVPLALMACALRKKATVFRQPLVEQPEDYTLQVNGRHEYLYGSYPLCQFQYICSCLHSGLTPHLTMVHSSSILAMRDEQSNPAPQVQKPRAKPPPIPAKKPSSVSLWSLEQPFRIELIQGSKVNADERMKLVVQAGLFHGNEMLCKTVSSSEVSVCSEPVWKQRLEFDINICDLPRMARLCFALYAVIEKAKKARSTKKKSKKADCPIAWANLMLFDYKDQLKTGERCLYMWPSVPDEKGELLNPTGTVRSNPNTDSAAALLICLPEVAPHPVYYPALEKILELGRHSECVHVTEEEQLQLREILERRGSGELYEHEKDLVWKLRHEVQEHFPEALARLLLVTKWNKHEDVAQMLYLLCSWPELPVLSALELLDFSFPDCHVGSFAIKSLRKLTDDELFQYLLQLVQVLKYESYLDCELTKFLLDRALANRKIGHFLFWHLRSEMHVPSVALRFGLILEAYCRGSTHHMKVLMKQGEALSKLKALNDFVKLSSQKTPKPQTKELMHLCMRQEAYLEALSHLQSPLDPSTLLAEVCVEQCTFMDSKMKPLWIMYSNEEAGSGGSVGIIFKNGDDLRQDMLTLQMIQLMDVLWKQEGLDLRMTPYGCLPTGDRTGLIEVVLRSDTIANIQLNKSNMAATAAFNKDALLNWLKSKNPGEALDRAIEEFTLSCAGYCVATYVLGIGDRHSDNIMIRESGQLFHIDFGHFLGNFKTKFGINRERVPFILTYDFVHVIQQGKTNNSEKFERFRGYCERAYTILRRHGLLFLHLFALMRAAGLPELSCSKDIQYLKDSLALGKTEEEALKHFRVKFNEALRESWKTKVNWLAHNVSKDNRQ

[3] = biological target: T2, Inhibitor of nuclear factor kappa-B kinase subunit epsilon (Homo sapiens) (UniProt Q14164); experiment: Inhibition of IKKe conserved Lys2 (DIKPGNIMR) in human PBMC at 0.1 uM
T2 sequence (whole entry): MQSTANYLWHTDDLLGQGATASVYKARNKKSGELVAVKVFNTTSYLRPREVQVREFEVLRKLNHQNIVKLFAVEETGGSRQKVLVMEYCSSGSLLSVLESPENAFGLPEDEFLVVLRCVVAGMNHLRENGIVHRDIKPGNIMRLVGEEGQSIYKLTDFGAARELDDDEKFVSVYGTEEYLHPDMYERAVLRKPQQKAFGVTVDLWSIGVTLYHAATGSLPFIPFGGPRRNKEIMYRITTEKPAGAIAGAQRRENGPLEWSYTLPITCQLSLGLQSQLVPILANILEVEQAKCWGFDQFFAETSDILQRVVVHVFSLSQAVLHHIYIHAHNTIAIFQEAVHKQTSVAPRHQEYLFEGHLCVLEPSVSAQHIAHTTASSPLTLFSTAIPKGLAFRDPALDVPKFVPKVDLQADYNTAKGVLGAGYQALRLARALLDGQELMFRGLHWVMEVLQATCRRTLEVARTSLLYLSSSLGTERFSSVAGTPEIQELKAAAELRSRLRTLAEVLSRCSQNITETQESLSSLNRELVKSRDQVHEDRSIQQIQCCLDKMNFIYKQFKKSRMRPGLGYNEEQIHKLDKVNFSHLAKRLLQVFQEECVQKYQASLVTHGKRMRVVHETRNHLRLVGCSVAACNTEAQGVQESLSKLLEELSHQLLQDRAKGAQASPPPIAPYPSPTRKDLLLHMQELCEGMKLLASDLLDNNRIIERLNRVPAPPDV

[4] = biological target: T3, Serine/threonine-protein kinase LATS1 (Homo sapiens) (UniProt O95835); experiment: Inhibition of LATS1 conserved Lys2 (DIKPDNILIDR) in human PBMC at 1 uM
T3 sequence (whole entry): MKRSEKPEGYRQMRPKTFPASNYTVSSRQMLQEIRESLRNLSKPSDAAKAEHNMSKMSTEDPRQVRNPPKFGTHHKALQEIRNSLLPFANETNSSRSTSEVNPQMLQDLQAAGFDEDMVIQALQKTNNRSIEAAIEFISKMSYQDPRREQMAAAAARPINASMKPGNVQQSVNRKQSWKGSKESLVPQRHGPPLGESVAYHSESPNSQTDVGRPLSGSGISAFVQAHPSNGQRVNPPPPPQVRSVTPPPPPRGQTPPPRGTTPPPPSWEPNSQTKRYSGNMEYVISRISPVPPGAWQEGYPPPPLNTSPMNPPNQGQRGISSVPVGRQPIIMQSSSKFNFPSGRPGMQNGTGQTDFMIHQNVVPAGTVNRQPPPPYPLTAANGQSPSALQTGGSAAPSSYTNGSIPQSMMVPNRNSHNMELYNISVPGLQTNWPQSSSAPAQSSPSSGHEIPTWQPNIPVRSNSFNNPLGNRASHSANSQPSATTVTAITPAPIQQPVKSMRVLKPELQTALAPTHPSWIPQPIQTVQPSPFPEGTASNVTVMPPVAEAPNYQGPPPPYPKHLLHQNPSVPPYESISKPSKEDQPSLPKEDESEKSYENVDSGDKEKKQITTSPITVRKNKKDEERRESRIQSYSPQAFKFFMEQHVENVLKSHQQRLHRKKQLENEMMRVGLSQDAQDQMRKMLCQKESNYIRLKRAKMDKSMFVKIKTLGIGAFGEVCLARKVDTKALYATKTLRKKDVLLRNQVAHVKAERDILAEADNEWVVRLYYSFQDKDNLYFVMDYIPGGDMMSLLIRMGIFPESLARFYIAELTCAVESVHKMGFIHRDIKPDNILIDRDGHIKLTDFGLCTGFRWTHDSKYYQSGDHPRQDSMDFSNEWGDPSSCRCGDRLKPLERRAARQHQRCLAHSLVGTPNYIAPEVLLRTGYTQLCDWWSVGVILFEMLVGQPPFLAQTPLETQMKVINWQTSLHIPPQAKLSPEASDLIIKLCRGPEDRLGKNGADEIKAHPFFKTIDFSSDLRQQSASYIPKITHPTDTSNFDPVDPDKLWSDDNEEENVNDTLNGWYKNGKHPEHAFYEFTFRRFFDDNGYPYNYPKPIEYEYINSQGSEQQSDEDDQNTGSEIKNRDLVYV

Cyclin-dependent kinase 5 (Homo sapiens), sequence (Q00535 whole entry, looked up, canonical isoform): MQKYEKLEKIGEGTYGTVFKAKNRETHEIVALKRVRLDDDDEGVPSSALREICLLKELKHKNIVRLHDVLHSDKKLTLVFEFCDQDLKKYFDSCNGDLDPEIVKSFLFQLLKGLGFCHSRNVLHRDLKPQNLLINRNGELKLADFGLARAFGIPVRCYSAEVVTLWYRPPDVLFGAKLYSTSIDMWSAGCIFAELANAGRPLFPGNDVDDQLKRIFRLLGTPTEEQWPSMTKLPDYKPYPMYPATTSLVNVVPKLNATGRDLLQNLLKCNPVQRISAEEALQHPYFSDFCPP

For `CC(C)n1cc(-c2cc(-c3ccc(CN4CCOCC4)cc3)cnc2N)nn1`, the inhibition [1] was -1.1%, the inhibition [2] was 8% and the inhibition [3] was 21.7%. It also gave an inhibition [4] of 30.9%.
